“Also recorded” adds a separate entry of the source. Where two headings read alike, the source gives them in different places.
Key:
in vivo [1] = settings: for AUC: AUC0-τ; for half-life: t½
Text: Animal studies. […] Animal studies were approved by the University of Georgia Animal Care and Use Committee and conducted in accordance with guidelines established by the Animal Welfare Act and the National Institutes of Health Guide for the Care and Use of Laboratory Animals. […] Animals were acclimatized to this environment for one week prior to the experiments.
At selected time intervals, mice (three animals per each time point) were anesthetized with diethyl ether and sacrificed by exsanguination via left ventricular heart puncture. Serum was harvested from blood collected. The brain was excised, rinsed with normal saline, blotted dry and weighed.
(§1) Analytical Methodology. […] The brain or liver tissue were homogenized in a 1:1 (g:mL) ratio with ice cold isotonic 0.05 M phosphate buffer, pH 7.4. […] Acetonitrile (600 μL) containing 0.1% acetic acid was added while vortexing to precipitate proteins. The tubes were centrifuged at 3,000 rpm for five minutes and the supernatant was transferred to a clean tube. Supernatant was evaporated to dryness under a stream of nitrogen gas at room temperature. The residual film was reconstituted in 110 μL of mobile phase and 50 μL was injected onto the HPLC.
(§2) Chromatographic separations were performed using a Hypersil ODS column 150×4.5 mm, 5 μm particle size (Alltech Associates, Deerfield, Ill.) preceded by a guard column packed with 30-40 μm pellicular Perisorb RP-18. Mobile phase flow rate was 2 mL/min. For the analysis of FAAddP and 2′-F-ara-ddA, the mobile phase consisted of 7% (v/v) acetonitrile in 80 mM sodium acetate, pH 5.0. […] Eluants were monitored at a UV wavelength of 260 nm.
(§3) Nucleoside standards ranging from 0.04 μg/mL to 100 μg/mL, prepared in blank PBS, serum, brain homogenate and liver homogenate were treated the same as unknown samples. Samples with nucleoside concentrations greater than 100 μg/mL were diluted with the appropriate blank matrix.
Data analysis in vivo studies. Nucleoside concentration as a function of time data were analyzed by a non-compartmental technique. […] Relative brain exposure (re) was calculated from AUCbrain/AUCserum.

HIV-1 = settings: relative to parent compounds ddA, ddI; cited from earlier work
[2] = in vivo; cited from earlier work
[3] = In vitro metabolism study of 6-AAP and ara-A in mouse liver homogenate, serum and brain homogenate
Method: (§5) All the solvents were of HPLC grade. Chromatography was performed on an Altech Hypersil ODS C18 (5 μm particle size, 4.5×150 mm, Altech Associates, Deerfield, Ill.).
(§6) In vitro metabolism study. Female NIH Swiss mice (Harland Sprague-Dawley, Indianapolis, Ind.) were sacrificed and serum, liver and brain tissues were collected before each experiment. Serum was collected from several animals. The brain and liver were washed in normal saline at 4° C., wiped and then weighed. […] Samples and blanks of volume 400 μL were collected at 0, 5, 15, and 30 minutes and at 1, 2, 3, 4 and 5 hours.
(§7) To measure the analyte concentrations in serum, liver or brain homogenate, 400 μL of sample was mixed with 50 μL of internal standard (AzdU, 5 μg/mL) and 0.7 mL of acetonitrile. After centrifugation, the supernatant was decanted to another tube and treated with anhydrous Na2SO4, then vortexed for one minute and centrifuged again. The organic layer was separated and evaporated under nitrogen stream at room temperature. The residue was reconstituted in mobile phase A and filtered through MPS-I micropartition system (3KD membranes (Amicon Inc., Beverly, Mass.) by centrifugation for 50 minutes at 2000 rpm to further clean-up the samples. 100 μL of filtrate was injected for analysis.

[4] = tested on: microsomal fraction of the human liver homogenate; experiment: Azido reduction assay
Method: Briefly, incubation mixtures contained either 1.5 mg of human liver fraction protein (homogenate or supernatant fractions following centrifugation) or 1.5 mg microsomal protein, 5.0 mM MgCl2, 6.0 mM NADPH and 0.4 mg/mL of 6-AAP in 0.1 M phosphate buffer saline at pH 7.4 (final volume of 0.2 mL). The reaction was initiated by adding NADPH and conducted at 37° C. for 60 minutes under nitrogen. Reactions were terminated by heating at 100° C. for 30 seconds and the proteins were removed by centrifugation at 14,000 g for six minutes. Aliquots (100 μL) were then analyzed for nucleosides by HPLC. Control incubations were performed in the absence of protein.
Inhibition of azido reduction assay: Assays were performed using 1.5 mg microsomal protein as described above following either a 45 second exposure to carbon monoxide or a 5 minute pre-incubation with 1 mM metyrapone prior to the addition of NADPH.

in vitro = settings: female, NIH Swiss, mouse
Method: as §5, §6, §7

in vivo [5] = settings: female, NIH Swiss, mouse; for Kp: brain
Method: (§8) Analysis. […] All the solvents were of HPLC grade. Chromatography was performed on an Altech Hypersil ODS C18 (5 μm particle size, 4.5×150 mm, Altech Associates, Deerfield, Ill.).
(§9) In vivo pharmacokinetics: Female NIH Swiss mice (Harland Sprague-Dawley, Indianapolis, Ind.) weighing 24-28 g were used for the pharmacokinetic experiments.
(§10) At least three animals each were sacrificed at 0.08, 0.025, 0.5, 0.75, 1.0, 2.0, 3.0, 4.0, 5.0 and 6.0 hours after drug administration. Blood (serum) from the heart and whole-brain samples were collected. Serum samples were treated immediately and brain samples were frozen at −20° C. until analysis. To determine the nucleoside concentrations in the serum, a know amount of serum sample, 50 μL of the internal standard (AzdU, 5 μg/mL) and 1.0 mL of acetonitrile as a protein precipitant were added to polypropylene microcentrifuge tubes (1.7 mL). Tubes were mixed and centrifuged at 9,000 rpm for 10 minutes.
(§11) After homogenization, 1.8 mL of acetonitrile was added to tissue homogenates, samples were mixed and centrifuged at 9,000 rpm for 10 minutes. The resulting supernatant from the serum or the brain was transferred to a clean tube and dried under a stream of nitrogen gas at 22° C. The residue was reconstituted in 220 μL of mobile phase D and after centrifugation at 12,000 rpm for 40 min, 100-150 μL was injected for the HPLC analysis. […] After each assay, the column was equilibrated to initial conditions for 7 minutes.
(§12) The area under concentration (AUC) versus time profiles from time zero to the last measured concentration were determined by the linear trapezoidal rule and the AUC from the time of the last measured concentration to infinity was determined by dividing the last determined concentration by the least-squares elimination rate constant (λZ). […] The relative tissue exposure (re) of the compounds was calculated from AUCTissue/AUCserum.

[6] = Stability of 6-AAP at pH 2, 7 and 11 by UV spectroscopy; assay type: physicochemical; settings: 37° C.
Method: (§4) The stability of 6-AAP at pH 2, 7 and 11 and towards adenosine deaminase hydrolysis was studied by UV spectroscopy.
Stability studies of 6AAP. A kinetic study at varying pHs (pH 2, 7 and 11 at 37.1° C.) was performed on a UV spectrophotometer to investigate the stability of 6-AAP. […] At pH 2, the compound was stable.

[7] = In vivo pharmacokinetics of 6-AAP and ara-A in mice (serum and brain)
Method: as §8, §9, §10, §11, §12

adenosine deaminase = target: T1, adenosine deaminase (Bos taurus, UniProt P56658); experiment: Adenosine deaminase study of 6-AAP; assay type: biochemical, calf; settings: phosphate buffer pH 7.4, 25° C., up to three hours
T1 construct: Type II crude powder from calf intestinal mucosa; purchased Sigma chemical Co., St. Louis, Mo; Type II crude powder; host or cells: calf intestinal mucosa
T1 sequence (P56658 1-363): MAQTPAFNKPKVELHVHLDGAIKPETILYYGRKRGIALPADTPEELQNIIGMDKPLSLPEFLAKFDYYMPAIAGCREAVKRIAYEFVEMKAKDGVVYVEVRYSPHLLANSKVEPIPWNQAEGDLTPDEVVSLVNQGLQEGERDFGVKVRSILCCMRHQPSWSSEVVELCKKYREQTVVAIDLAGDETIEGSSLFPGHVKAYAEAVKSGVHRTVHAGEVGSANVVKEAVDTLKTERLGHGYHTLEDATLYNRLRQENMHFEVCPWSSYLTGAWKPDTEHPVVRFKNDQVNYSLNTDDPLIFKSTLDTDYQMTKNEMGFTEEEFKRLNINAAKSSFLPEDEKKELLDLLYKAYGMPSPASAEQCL
Method: as §4
Materials: Melting points were determined on a Mel-Temp II laboratory device and are uncorrected. The ^1H NMR spectra were recorded on a JEOL FX 90 Q FT spectrophotometer, with TMS as the internal standard; chemical shifts are reported in parts per million (δ), and the signals are quoted as s (singlet), d (doublet), t (triplet) or m (multiplet). UV spectra are recorded on a Beckman DU-650 spectrophotometer. TLC was performed on Uniplates (silica gel) purchased from Analtech Co. Elemental analysis was performed by Atlantic Microlab, Inc., Norcross, Ga. Ara-A and Adenosine deaminase (Type II crude powder from calf intestinal mucosa, 1-5 units/mg activity) was purchased from Sigma chemical Co., St. Louis, Mo. All other chemicals are of reagent grade. Methanol and acetonitrile, methyl sulfoxide were purchased from EM Science, Gibbstown, N.J.
Adenosine deaminase studies.

[8] = In vitro stability in PBS, mouse serum, brain and liver homogenate (FAAddP, FMAddA); assay type: in vitro ADME; settings: for half-life at 70 μM: mouse
Method: In vitro stability in serum, brain and liver homogenate. Liver and brain homogenate were prepared in a 1: 1 (g:mL) ratio with isotonic 0.05 M phosphate buffer, pH 7.4. FAAddP (70 μM) or FMAddA (50 μM) were added to the mouse serum, the brain homogenate or the liver homogenate and incubated in a shaker water bath at 37° C. Aliquots of 100 μL were removed at time zero and at selected times for up to 6 hours. Concentrations of the compounds were determined by HPLC.
as §1, §2, §3
Data analysis in vitro studies.

[9] = target: T2, adenosine deaminase (type VII from calf intestinal mucosa) (Bos taurus, UniProt P56658); experiment: Deamination by adenosine deaminase (2′-fluoronucleosides); assay type: biochemical; settings: in vitro biotransformation
T2 construct: type VII from calf intestinal mucosa; purchased Sigma Chemical Co., St. Louis, Mo. type VII; host or cells: calf intestinal mucosa
T2 sequence (P56658 1-363): T1 sequence (P56658 1-363)
Method: Deamination of 2′-F-ara-ddA and FMAddA by adenosine deaminase. Samples (1.5 mL) of 2′-F-ara-ddA (80 μM) or FMAddA (50 μM) were prepared in 0.05 M isotonic phosphate buffer, pH 7.4, and placed into a shaking water bath at 37° C. The reaction was initiated by the addition of 15 μL of adenosine deaminase (type VII from calf intestinal mucosa, Sigma Chemical Co., St. Louis, Mo.). The final activity in the incubation media was 0.05 U/mL for 2′-F-ara-ddA and 1.0 U/mL for FMAddA. At specified time intervals, aliquots of 100 μL were withdrawn for the determination of 2′-F-ara-ddA and 2′-F-ara-ddI or FMAddA and 2′-F-ara-ddI concentrations.
Mobile phase flow rate was 2 mL/min.

[10] = female, NIH-Swiss, mouse, in vivo, iv, 55 mg/kg
[11] = female, NIH-Swiss, mouse, in vivo, po, 55 mg/kg
[12] = 6-AAP and coformycin incubated in mouse liver homogenate
[13] = 6-AAP incubated in mouse liver homogenate
[14] = after 6-AAP 100 mg/kg iv, brain
[15] = after 6-AAP 100 mg/kg iv, serum
[16] = after 6-AAP 100 mg/kg oral, brain
[17] = after 6-AAP 100 mg/kg oral, serum

Nc1ncnc2c1ncn2[C@@H]1O[C@H](CO)C[C@@H]1F [2′-F-ara-ddA, 2′-fluoro-2′,3′-dideoxyadenosine]
AUC0-τ (in vivo [1]; [10]): 3.9 µM·h
AUC (in vivo [1]; [10]): 3 µM·h
AUC (in vivo [1]; [11]): 0.8 µM·h
half-life (in vivo [1]; [11]): 1.74 h
AUC/Dose (in vivo [1]; mice, after FAAddP 55 mg/kg iv, brain): 0.02 μM · h/μmol/kg
AUC/Dose (in vivo [1]; mice, after FAAddP 55 mg/kg iv, serum): 0.04 μM · h/μmol/kg
AUC/Dose (in vivo [1]; mice, after FAAddP 55 mg/kg oral, serum): 0.005 μM · h/μmol/kg
potency in protecting CD4+ATH8 cells from cytopathogenic effects of HIV-1 (HIV-1): as potent as the parent compounds

Nc1nc2c(ncn2COCCO)c(=O)[nH]1 [Acyclovir]
oral bioavailability [2]: 15-20%

[N-]=[N+]=Nc1ncnc2c1ncn2[C@@H]1O[C@H](CO)[C@@H](O)[C@@H]1O [Compound 6-AAP, 9-(β-D-arabinofuranosyl)-6-azidopurine]
Kel [3, 12]: 0.12 h⁻¹
T1/2 [3, 12]: 5.98 h
Kel ([3]; 6-AAP incubated in mouse brain homogenate): 0.01 h⁻¹
Kel [3, 13]: 0.14 h⁻¹
T1/2 [3, 13]: 4.66 h
Kel ([3]; 6-AAP incubated in mouse serum, calculated from 0 to 1 h): 0.25 h⁻¹
T1/2 ([3]; 6-AAP incubated in mouse serum, calculated from 0 to 1 h (slow initial decline)): 3.73 h
azido reduction (metabolites formed) [4]: converted to ara-A
half-life at 100 μg/mL (in vitro; brain homogenate): 7.29 h
half-life at 100 μg/mL (in vitro; tissue homogenate): 4.9 h
Kp (in vivo [5]; intravenous, 100 mg/kg): 0.02
Kp (in vivo [5]; iv, 100 mg/kg): 0.02
Kp (in vivo [5]; oral, 100 mg/kg): 0.3
Kp (in vivo [5]; po, 100 mg/kg): 0.33
AUC (in vivo [5]; serum, iv, 20 mg/kg): 85600 ng·h/mL
AUC (in vivo [5]; serum, iv, 100 mg/kg): 201000 ± 17900 ng·h/mL
AUC (in vivo [5]; serum, po, 100 mg/kg): 13800 ± 1400 ng·h/mL
bioavailability (in vivo [5]; serum, po, 100 mg/kg): 6.8%
stability at pH 2 ([6]; UV at 287.5 nm, 2.75 hours): did not show any significant change; also recorded: stable
stability at pH 7 ([6]; UV at 287.5 nm, 2.75 hours): did not show any significant change; also recorded: stable
stability at pH 11 ([6]; UV spectroscopy): immediately changed its UV absorption maximum; also recorded: shifted from 287.5 nm to 222.5 nm immediately
Maximum concentration in serum, intravenous ([7]; after 6-AAP 100 mg/kg iv): 465 ± 167 µg/mL
maximum concentration in the brain, intravenous ([7]; after 6-AAP 100 mg/kg iv): 5.92 ± 0.7 µg/g
time of maximum concentration in the brain, intravenous ([7]; after 6-AAP 100 mg/kg iv): 5 min
AUC [7, 14]: 4410 ± 370 ng·h/mL
t1/2 [7, 14]: 0.77 h
AUC [7, 15]: 201100 ± 17900 ng·h/mL
t1/2 [7, 15]: 0.55 h
Maximum concentration in serum, oral ([7]; after 6-AAP 100 mg/kg oral): 7.8 ± 2.51 µg/mL
maximum concentration in the brain, oral ([7]; after 6-AAP 100 mg/kg oral): 1.87 µg/g
time of maximum concentration in serum, oral ([7]; after 6-AAP 100 mg/kg oral): 60 min
time of maximum concentration in the brain, oral ([7]; after 6-AAP 100 mg/kg oral): 30 min
re (brain) ([7]; after 6-AAP 100 mg/kg oral, AUCTissue/AUCserum): 0.30
AUC [7, 16]: 4120 ± 370 ng·h/mL
t1/2 [7, 16]: 1.29 h
AUC [7, 17]: 13770 ± 1400 ng·h/mL
t1/2 [7, 17]: 0.58 h
fold difference in the AUC values after iv dosing of 20 and 100 mg/kg ([7]; serum): 5 fold
hydrolysis by adenosine deaminase (adenosine deaminase): not hydrolysed

[N-]=[N+]=Nc1ncnc2c1ncn2C1OC(CO)CC1F [FAAddP, 6-azido-2′,3′-dideoxy-2′-fluoro-β-D-arabinofuranosylpurine]
stability in phosphate buffer saline ([8]; PBS pH 7.4, 37° C.): stable
half-life at 70 μM ([8]; brain homogenate, pH 7.4, mouse brain homogenate, read-out: half-life in brain homogenate (converted)): 6.1 h
half-life at 70 μM ([8]; liver homogenate, pH 7.4, mouse liver homogenate, biphasic, after initial 45 minutes, read-out: t1/2 in liver homogenate, subsequent slower phase (converted)): 7.74 h
half-life at 70 μM ([8]; liver homogenate, pH 7.4, mouse liver homogenate, biphasic, initial phase, read-out: t1/2 in liver homogenate, initial 45 minutes (converted)): 0.48 h
half-life at 70 μM ([8]; mouse serum, 37° C., read-out: degradation half-life in mouse serum (converted)): 2.41 h
azido reduction (metabolites formed) [4]: metabolized to 2′-F-ara-ddA and 2′-F-ara-ddI
intravenously administered dose of prodrug converted to 2′-F-ara-ddI (in vivo [1]; female, NIH-Swiss, mouse, in vivo): Approximately 30%
clearance (in vivo [1]; female, NIH-Swiss, mouse, in vivo, iv): 18.7 mL/min/kg
t½ (in vivo [1]; [10]): 0.22 h
half-life (in vivo [1]; [10]): 0.22 h
AUC/Dose (in vivo [1]; [11]): 0.19 μM · h/μmol/kg
bioavailability (in vivo [1]; [11]): 19%
AUC (in vivo [1]; [11]): 34.2 µM·h
half-life (in vivo [1]; [11]): 1.53 h
direct conversion to 2′-F-ara-ddI by adenosine deaminase [9]: negligible rate

— patent US6949521B2, “Therapeutic azide compounds” (priority 1995, dated 2005)
